Values of other authors, collected in patent publication US20200230141A1, “BI-LAYER PHARMACEUTICAL TABLET FORMULATION” (ViiV Healthcare Company, priority 2017, published 2020).
Like-named read-outs stand apart in the source and are kept apart here.

How the values were obtained:
HIV-1 strains = settings: broad range of HIV-1 strains
[1] = steady state, HIV-1-infected adults
[2] = typical / standard physiologic conditions
[3] = not told

Row | permeability [3] | Compound | potency (HIV-1 strains) | Cmax, geometric mean (% CV) ([1]; 50 mg once daily) | Cmin, geometric mean (% CV) ([1]; 50 mg once daily) | AUC(0-24), geometric mean (% CV) ([1]; 50 mg once daily, population PK (SPRING-1, SPRING-2)) | Cmax, geometric mean (% CV) ([1]; 50 mg twice daily) | Cmin, geometric mean (% CV) ([1]; 50 mg twice daily) | AUC(0-24), geometric mean (% CV) ([1]; 50 mg twice daily, population PK (VIKING, VIKING-3)) | solubility [2]
1 |  | C[C@@H]1CCO[C@H]2Cn3cc(C(=O)NCc4ccc(F)cc4F)c(=O)c(O)c3C(=O)N12 [Dolutegravir, (4R,12aS)—N-[(2,4-difluorophenyl)methyl]-7-hydroxy-4-methyl-6,8-dioxo-3,4,12,12a-tetrahydro-2H-pyrido[5,6]pyrazino[2,6-b][1,3]oxazine-9-carboxamide] | subnanomolar | 3.67 (20) mcg/mL | 1.11 (46) mcg/mL | 53.6 (27) mcg · h/mL | 4.15 (29) mcg/mL | 2.12 (47) mcg/mL | 75.1 (35) mcg · h/mL | slightly soluble
2 | highly permeable | Nc1ccn([C@@H]2CS[C@H](CO)O2)c(=O)n1 (single isomer, unassigned) [lamivudine] |  |  |  |  |  |  |  | 
